Assay: physchem
Settings: human

Row | Compound | pKa
1 | COc1ccc([C@H](N[C@@H]2CC[C@@H](C(=O)N3CCC(C(=O)N4CCCC4)(c4ccccc4)CC3)C(C)(C)C2)C(F)(F)F)cc1 | 4.24
2 | COc1ccc([C@@H](C)N[C@@H]2CC[C@@H](C(=O)N3CCC(C(=O)N4CCCC4)(c4ccccc4)CC3)C(C)(C)C2)cc1 | 10.2
